According to publication PMC7071076, “Antibacterial Activity and Pharmacokinetic Profile of a Promising Antibacterial Agent: 22-(2-Amino-phenylsulfanyl)-22-Deoxypleuromutilin” (Molecules, 2020):
Converted amounts (≈) assume the structure as drawn. Structures can show the parent of a compound that is named as a salt. Where two headings read alike, the source gives them in different places.

Columns and labels:
[1] = test system: MRSA ATCC 43300; test: MRSA wound infection model: wound bacterial burden; assay type: in vivo, mice
Protocol: (§1) Six weeks SPF-ICR female mice were used for this study. The Experimental model, inducted of inflammatory in mice by skin excision, was established referring to existing methods with some alterations. The mice were anesthetized with the intravenous injection of 1% sodium pentobarbital. After their hair on the back was shaved, the mice were anesthetized and the back skin was perforated with a biopsy perforator at a depth of fascia injury. The inoculum (50 μL), containing 10^9 CFU/mL of the indicated microorganism (MRSA ATCC 43300), was applied on the wound for three times at 30 min intervals. 100 μL drug (3 mg/mL) was administrated on the wound at 1 h after inoculation for three consecutive days. A total of 100 μL blank matrix was given to the infected control group and the non-infected group in the same way. The wound was wrapped with sterile gauze. During the treatment, all mice were kept individually and free to eat and drink.
At the end of the examination, mice were anesthetized and killed. Tissue samples, reaching to the muscle membrane, were removed from the middle of the wound surface and homogenized in 0.9% saline. Serially diluted aliquots of homogenate were cultured on high-salt mannitol agar plate at 37 °C for 24 h. The log of the colony number was used for statistical analysis.

[2] = test system: MRSA ATCC 43300; test: MRSA wound infection model: wound size; assay type: in vivo, mice; details: after treatment for three days; 100 μL drug (3 mg/mL) on the wound
Protocol: as §1
The wounds were examined on day 1 and days 3 after treatment. The area of wound were measured according to previous reports with some modifications. In each group, six mice were taken out and anesthetized to take photos and measure the size of the wound as the results.

[3] = test system: MRSA N20; test: MIC testing, clinical strain; assay type: cell-based; details: Staphylococcus aureus
From the text: (§2) Methicillin-resistant Staphylococcus aureus (MRSA) ATCC 43300, Staphylococcus aureus ATCC 29213, Escherichia coli ATCC 25922, Salmonella typhimurium ATCC 14028, Enterococcus faecalis ATCC 29212, and Enterococcus faecium ATCC 35667 were obtained from the China Institute of Veterinary Drug Control (Beijing, China). Five clinical strains of MRSA (N7, N9, N20, N30, and N54) were isolated from diseased pig tissues of South China Agricultural University and Foshan University Animal Hospital. All clinical strains were identified as MRSA by Gram stain, catalase reaction, coagulase test, staphylococcus API identification system test, MecA gene test, and methicillin MIC test.
(§3) The MIC of amphenmulin against MRSA, Escherichia coli, Salmonella typhimurium, Enterococcus faecalis, and Enterococcus faecium were determined using tiamulin as controls. MIC values were measured by the method of previous work. Staphylococcus aureus ATCC 29213 was used as the quality control bacteria, and the quality control range was referred to the Clinical and Laboratory Standards Institute (CLSI). The bacteria solution was diluted to ~10^6 CFU/mL with Mueller–Hinton (MH) broth for MRSA, Escherichia coli and Salmonella typhimurium while Trypticase Soy Broth for Enterococcus faecalis and Enterococcus faecium. Drugs were dissolved in an aqueous solution of N, N-dimethylformamide (DMF) at a concentration of 2560 µg/mL, and then diluted with broth to prepare working solution (1280 µg/mL). The drug susceptibility testing was performed in 96-well plate. A total of 20 µL of working solution was added into column 1 and well mixed as a 10-fold dilution, following which Serial 2-fold dilutions were prepared to provide concentration ranges of 128–0.0078 µg/mL. Blank broth (no cultures) and bacteria solution (drugs replaced by blank solvent) were set as drug-free controls. Each 96-well plate was cultured at 37 °C for 24 h. The MIC value is the lowest concentration of amphenmulin which inhibits the visible growth of bacteria. The experiment was repeated three times.

[4] = test system: MRSA N9; test: MIC testing, clinical strain; assay type: cell-based; details: Staphylococcus aureus
From the text: as §2, §3

[5] = test system: MRSA N54; test: MIC testing, clinical strain; assay type: cell-based; details: Staphylococcus aureus
From the text: as §2, §3

[6] = test system: MRSA N7; test: MIC testing, clinical strain; assay type: cell-based; details: Staphylococcus aureus
From the text: as §2, §3

[7] = test system: MRSA N30; test: MIC testing, clinical strain; assay type: cell-based; details: Staphylococcus aureus
From the text: as §2, §3

[8] = test system: S. aureus ATCC 29213; test: MIC testing (broth dilution, 96-well plate); assay type: cell-based; details: Staphylococcus aureus, ATCC29213
Protocol: as §3

[9] = test system: E. coli ATCC 25922; test: MIC testing (broth dilution, 96-well plate); assay type: cell-based; details: Escherichia coli, ATCC25922
Protocol: as §3

[10] = test system: E. faecalis ATCC 29212; test: MIC testing (broth dilution, 96-well plate); assay type: cell-based; details: Enterococcus faecalis, ATCC29212
Protocol: as §3

[11] = test system: E. faecium ATCC 35667; test: MIC testing (broth dilution, 96-well plate); assay type: cell-based; details: Enterococcus faecium, ATCC35667
Protocol: as §3

[12] = test system: S. typhimurium ATCC 14028; test: MIC testing (broth dilution, 96-well plate); assay type: cell-based; details: Salmonella enterica
Protocol: as §3

[13] = test system: MRSA ATCC 43300; parameters: method as in PMID 28295316; details: 4× MIC, cited from earlier work

Row | Structure (SMILES) | number of bacteria in wound tissue vs infected group ([1]; one day after treatment, p < 0.05) | number of bacteria in wound tissue ([1]; three days after treatment, 100 μL drug (3 mg/mL) on the wound) | wound area [2] | MIC [3] | MIC [4] | MIC [5] | MIC [6] | MIC [7] | MIC [8] | MIC [9] | MIC [10] | MIC [11] | MIC [12] | PAE ([13]; exposure for 1 h) | PAE ([13]; exposure for 2 h)
1 | CN[C@H](CC(C)C)C(=O)N[C@H]1C(=O)N[C@@H](CC(N)=O)C(=O)N[C@H]2C(=O)N[C@H]3C(=O)N[C@H](C(=O)N[C@H](C(=O)O)c4cc(O)cc(O)c4-c4cc3ccc4O)[C@H](O)c3ccc(c(Cl)c3)Oc3cc2cc(c3O[C@@H]2O[C@H](CO)[C@@H](O)[C@H](O)[C@H]2O[C@H]2C[C@](C)(N)[C@H](O)[C@H](C)O2)Oc2ccc(cc2Cl)[C@H]1O [vancomycin, vancomycin hydrochloride, reference compound] | significant decrease | 4.25 ± 0.57 log10 CFU/mL | 0.44 ± 0.07 cm^2 |  |  |  |  |  |  |  |  |  |  |  | 
2 | C=C[C@]1(C)C[C@@H](OC(=O)CSCCN(CC)CC)[C@]2(C)[C@H](C)CC[C@]3(CCC(=O)[C@H]32)[C@@H](C)[C@@H]1O [Tiamulin, reference compound] |  |  |  | 32 µg/mL (≈ 64.8 µM) | 0.5 µg/mL (≈ 1.01 µM) | 0.5 µg/mL (≈ 1.01 µM) | 16 µg/mL (≈ 32.4 µM) | 32 µg/mL (≈ 64.8 µM) | 0.5 µg/mL (≈ 1.01 µM) | > 128 µg/mL | > 128 µg/mL | 2 µg/mL (≈ 4.05 µM) | > 128 µg/mL | 1.90 h | 2.04 h
